Earlier results, collected in publication PMC10321319 (Nature, 2022).
Converted amounts (≈) assume the structure as drawn.

Key:
A. baumannii 0287 = conditions: XDR A. baumannii 0287, mcr-1 −; ref CDC & FDA Antibiotic Resistant Isolate Bank; cited from earlier work
A. baumannii 0295 = conditions: XDR A. baumannii 0295, mcr-1 −; ref CDC & FDA Antibiotic Resistant Isolate Bank; cited from earlier work
A. baumannii 0301 = conditions: XDR A. baumannii 0301, mcr-1 −; ref CDC & FDA Antibiotic Resistant Isolate Bank; cited from earlier work
A. baumannii 0286 = conditions: XDR A. baumannii 0286, mcr-1 −; ref CDC & FDA Antibiotic Resistant Isolate Bank; cited from earlier work
A. baumannii 0282 = conditions: XDR A. baumannii 0282, mcr-1 −; ref CDC & FDA Antibiotic Resistant Isolate Bank; cited from earlier work
A. baumannii 0296 = conditions: XDR A. baumannii 0296, mcr-1 −; ref CDC & FDA Antibiotic Resistant Isolate Bank; cited from earlier work

| SMILES | MIC (A. baumannii 0287) [µg/mL] | MIC (A. baumannii 0295) [µg/mL] | MIC (A. baumannii 0301) [µg/mL] | MIC (A. baumannii 0286) [µg/mL] | MIC (A. baumannii 0282) [µg/mL] | MIC (A. baumannii 0296) [µg/mL] |
| --- | --- | --- | --- | --- | --- | --- |
| CCN1CCN(C(=O)N[C@@H](C(=O)N[C@@H]2C(=O)N3[C@@H]2SC(C)(C)[C@@H]3C(=O)O)c2ccccc2)C(=O)C1=O [Piperacillin] | >128 | >128 | >128 | >128 | >128 | >128 |
| C[C@H]1COc2c(N3CCN(C)CC3)c(F)cc3c(=O)c(C(=O)O)cn1c23 [Levofloxacin] | 8 (≈ 22.1 µM) | >8 | >8 | 8 (≈ 22.1 µM) | 8 (≈ 22.1 µM) | >8 |
| C[C@@H](O)[C@H]1C(=O)N2C(C(=O)O)=C(S[C@@H]3CN[C@H](CNS(N)(=O)=O)C3)[C@H](C)[C@H]12 [Doripenem] | >8 | >8 | >8 | >8 | >8 | >8 |
| C[C@@H](O)[C@H]1C(=O)N2C(C(=O)O)=C(SCCN=CN)C[C@H]12 [Imipenem] | 64 (≈ 214 µM) | >64 | >64 | >64 | 64 (≈ 214 µM) | 64 (≈ 214 µM) |
| C[C@@H](O)[C@H]1C(=O)N2C(C(=O)O)=C(S[C@@H]3CN[C@H](C(=O)N(C)C)C3)[C@H](C)[C@H]12 [Meropenem] | >8 | >8 | >8 | >8 | >8 | >8 |
| CN(C)[C@@H]1C(O)=C(C(N)=O)C(=O)[C@@]2(O)C(O)=C3C(=O)c4c(O)cccc4[C@@](C)(O)[C@H]3C[C@@H]12 [Tetracycline] | >32 | >32 | >32 | >32 | >32 | 32 (≈ 72 µM) |
| CNC(C)C1CCC(N)C(OC2C(N)CC(N)C(OC3OCC(C)(O)C(NC)C3O)C2O)O1 (stereo not shown) [Gentamicin] | 4 (≈ 8.38 µM) | 4 (≈ 8.38 µM) | 8 (≈ 16.8 µM) | >16 | >16 | >16 |
| CO/N=C(\C(=O)N[C@@H]1C(=O)N2C(C(=O)[O-])=C(C[N+]3(C)CCCC3)CS[C@H]12)c1csc(N)n1 [Cefepime] | 32 (≈ 66.6 µM) | >32 | >32 | 32 (≈ 66.6 µM) | >32 | >32 |
| NCC[C@H](O)C(=O)N[C@@H]1C[C@H](N)[C@@H](O[C@H]2O[C@H](CN)[C@@H](O)[C@H](O)[C@H]2O)[C@H](O)[C@H]1O[C@H]1O[C@H](CO)[C@@H](O)[C@H](N)[C@H]1O [Amikacin] | 32 (≈ 54.6 µM) | 4 (≈ 6.83 µM) | 64 (≈ 109 µM) | >64 | >64 | >64 |
| CC(C)(O/N=C(\C(=O)N[C@@H]1C(=O)N2C(C(=O)[O-])=C(C[n+]3ccccc3)CS[C@H]12)c1csc(N)n1)C(=O)O [Ceftazidime] | 128 (≈ 234 µM) | >128 | 128 (≈ 234 µM) | 128 (≈ 234 µM) | >128 | >128 |
| CN(C)c1cc(NC(=O)CNC(C)(C)C)c(O)c2c1C[C@H]1C[C@H]3[C@H](N(C)C)C(O)=C(C(N)=O)C(=O)[C@@]3(O)C(O)=C1C2=O [Tigecycline] | – | 4 (≈ 6.83 µM) | 4 (≈ 6.83 µM) | – | – | – |
| NC[C@H]1O[C@H](O[C@H]2[C@H](O)[C@@H](O[C@H]3O[C@H](CO)[C@@H](O)[C@H](N)[C@H]3O)[C@H](N)C[C@@H]2N)[C@H](N)C[C@@H]1O [Tobramycin] | >16 | – | >16 | >16 | >16 | >16 |
